Where two headings read alike, the source gives them in different places.
Legend:
[1] = Acute toxicity in mice, LD50 oral and intraperitoneal; conditions: mouse, in vivo
Text: Most of the compounds of the formula (I) have low toxicity, as is apparent from following Table II in which are given the LD50 per os and i.p. in mice.

collateral arteries = assay: Acute occlusion of the femoral artery: resistance of the collateral arteries, systemic blood pressure, tissue perfusion pressure; format: in vivo, dogs
Description: Thus, with some of the compounds, there was noted an increase of the arterial rate of flow from as low a dosage as 0.1-0.5 mg/kg i.v.

[2] = ip, read-out: Acute toxicity, intraperitoneal route LD50
[3] = po, per os, read-out: Acute toxicity, oral route LD50

Compound | LD50 [1, 2] [mg/kg] | LD50 [1, 3] [mg/kg] | decrease of the resistance of the collateral arteries (collateral arteries) | effect on systemic blood pressure (collateral arteries) | effect on tissue perfusion pressure (collateral arteries)
Cc1nc2c(s1)CC(CN)CC2 (stereo not drawn) [Example 17, 2-methyl-6-aminomethyl-4,5,6,7-tetrahydro-benzo[d]thiazole] | > 200 | > 200 |  |  | 
CCCCc1nc2c(s1)CCC(CNC)C2 (stereo not drawn) [Example 12, 2-n-Butyl-5-(N-methylaminomethyl)-4,5,6,7-tetrahydrobenzo[d]thiazole] | 140 | > 200 |  |  | 
CCCCc1nc2c(s1)CCCC2CNC (stereo not drawn) [Example 11, 2-n-Butyl-4-(N-methylaminomethyl)4,5,6,7-tetrahydro-benzo[d]thiazole] | 58 | ≥ 200 | marked decrease | without substantially affecting | without substantially affecting
CNCC1CCc2sc(C)nc2C1 (stereo not drawn) [Example 6, 2-Methyl-5-(N-methylaminomethyl)-4,5,6,7-tetrahydrobenzo[d]thiazole] |  | > 200 | marked decrease | without substantially affecting | without substantially affecting
CNCC1CCCc2scnc21 (stereo not drawn) [Example 2, 4-(N-Methylaminomethyl)-4,5,6,7-tetrahydro-benzo[d]thiazole] | ≥ 200 | > 200 |  |  | 
CNCC1CCc2sc(C(C)C)nc2C1 (stereo not drawn) [Example 13, 2-Isopropyl-5-(N-methylaminomethyl)-4,5,6,7-tetrahydrobenzo[d]thiazole] | 140 | > 200 |  |  | 
Cc1nc2c(s1)CCC(CN)C2 (stereo not drawn) [Example 15, 2-methyl-5-aminomethyl-4,5,6,7-tetrahydro-benzo[d]thiazole] | > 200 | > 200 |  |  | 
CCCNCC1CCc2ncsc2C1 (stereo not drawn) [Example 10, 6-(N-n-Propylaminomethyl)-4,5,6,7-tetrahydro-benzo[d]thiazole] | 190 | > 200 |  |  | 
CCNCC1CCc2nc(CC)sc2C1 (stereo not drawn) [Example 9, 2-Ethyl-6-(N-ethylaminomethyl)-4,5,6,7-tetrahydrobenzo[d]thiazole] | 120 | > 200 |  |  | 
NCC1CCCc2scnc21 (stereo not drawn) [Example 1, 4-Aminomethyl-4,5,6,7-tetrahydro-benzo[d]thiazole] | 140 | > 200 |  |  | 
CCCCNCC1CCCc2sc(C)nc21 (stereo not drawn) [Example 18, 2-methyl-4-(N--n-butylamino-methyl)-4,5,6,7-tetrahydro-benzo[d]thiazole] | 58 | > 200 |  |  | 
NCC1CCc2ncsc2C1 (stereo not drawn) [Example 8, 6-Aminomethyl-4,5,6,7-tetrahydro-benzo[d]thiazole] | > 200 | > 200 |  |  | 
CNCC1CCc2ncsc2C1 (stereo not drawn) [Example 16, 6-(N--methylaminomethyl)-4,5,6,7-tetrahydro-benzo[d]thiazole] | 75 | 170 |  |  | 
Cc1nc2c(s1)CCC(CNC(C)C)C2 (stereo not drawn) [Example 19, 2-methyl-5-(N--isopropylamino-methyl)-4,5,6,7-tetrahydro-benzo[d]thiazole] | > 200 | > 200 |  |  | 
CNCC1CCc2nc(C)sc2C1 (stereo not drawn) [Example 7, 2-Methyl-6-(N-methylaminomethyl)-4,5,6,7-tetrahydrobenzo[d]thiazole] | > 200 | > 200 |  |  | 
Cc1nc2c(s1)CCCC2CN (stereo not drawn) [Example 3, 2-Methyl-4-aminomethyl-4,5,6,7-tetrahydro-benzo[d]thiazole] |  | > 200 |  |  | 
NCC1CCc2scnc2C1 (stereo not drawn) [Example 14, 5-aminomethyl-4,5,6,7-tetrahydro-benzo[d]thiazole] | > 200 | ≥ 200 |  |  | 
CNCC1CCc2scnc2C1 (stereo not drawn) [Example 5, 5-(N-Methylaminomethyl)-4,5,6,7-tetrahydro-benzo[d]thiazole] | > 200 | > 200 |  |  | 
CCCCNCC1CCc2sc(C)nc2C1 (stereo not drawn) [Example 20] | 58 | 145 |  |  | 
